Source: US12686664B2, “SOCE inhibitors and therapeutic uses thereof” (Institut National de la Santé et de la Recherche Médicale …, priority 2020, dated 2026)
pIC50: −log10 of the molar value. “And” between values parts separate entries of the source, which are not always exact repeats. Identical values can stand only once. Like-named read-outs stand apart in the source and are kept apart here.

Experiments:
Type in all cases: cell-based
[1] = tested on: store-operated Ca^2+ entry in PLP-B lymphocytes; experiment: Store-operated Ca2+ entry after thapsigargin depletion of ER Ca2+ stores in PLP-B lymphocytes; conditions: for Effect on amplitude of SOCE peak / inhibition at 10 µM / inhibition at 50 µM / inhibition at 1 µM / inhibition at 100 µM / inhibition at 0.1 µM: PLP-B lymphocytes, % of inhibition (−) or activation; for pIC50: SOCE in PLP-B lymphocytes, average of three assays, ±0.5 μM
Protocol: (§1) The effects of the molecules developed were tested on PLP-B lymphocytes. Store-operated Ca^2+ entry was induced by depletion of Endoplasmic Reticulum Ca^2+ stores (ER Ca^2+ stores) with thapsigargin (Tg) in a Ca^2+-free medium and measured following the addition of 1.8 mM of CaCl2) in the extracellular medium. The results are compared to the results obtained for known SOCE inhibitors SKF-96365, GSK-7975A, Synta 66.

[2] = tested on: store-operated Ca^2+ entry in HEK 293; experiment: Store-operated Ca2+ entry in HEK 293 cell line; conditions: for Effect on amplitude of SOCE peak: % of inhibition (−) or activation
Protocol: as §1
(§2) Then, effects of the molecule that gave the best results in this test (i.e., molecule 6αa) were assessed in two cancer cell lines, namely: HEK 293 and HEK 651 HS1 tumor cell lines.

[3] = tested on: store-operated Ca^2+ entry in HEK 651 HS1; experiment: Store-operated Ca2+ entry in HEK 651 HS1 cell line; conditions: for Effect on amplitude of SOCE peak: % of inhibition (−) or activation; for pIC50: average of three assays, ±0.5 μM
Protocol: as §1, §2

SOCE in JOK B cells = experiment: Intracellular calcium levels / SOCE in JOK B cells (Fura-2AM, FlexStation 3); conditions: for amplitude of SOCE: 5 and 20 μM, compared to control, irrespective of incubation time (5, 15, 30 minutes, 1 hour)
Protocol: Intracellular calcium levels were monitored at 37° C. using the FlexStation 3™ (Molecular Devices, Berkshire, UK), a fluorescence plate reader measuring time-resolved intracellular Ca^2+ concentration in a 96-well format with cells loaded with the dual-wavelength fluorescent calcium-sensitive dye Fura-2AM.
Intracellular Ca^2+ stores were depleted with 2 μM Thapsigargin (an inhibitor of ER SERCA pumps) under Ca^2+-free conditions to determine the magnitude of intracellular Ca^2+ release. Next, the cells were returned to Ca^2+-containing Hepes-buffered solution to measure SOCE. The magnitude of SOCE was estimated as the maximal values of normalized fluorescence ratio following Ca^2+ re-addition.

JOK cells [4] = experiment: JOK cell viability and apoptosis assays (LIVE/DEAD, Annexin V-FITC/PI); conditions: JOK B cells (FIG. 7); 5 or 20 μM; treated for 48 hours
Protocol: Cell Viability Assays. JOK cells were treated with test compounds (GSK-7975-A, SKF-93365 and 6αa) or solvent for 48 hours. JOK cells viability was then assessed using LIVE/DEAD cell viability assays kit (Abcam). Differentially labeled live and dead cells with fluorescent dyes are analyzed by flow cytometry.
Apoptosis Assay. Apoptosis of JOK cells were determined by Annexin V-FITC/PI staining (Biolegend) using flow cytometry. The percentage of annexin V-FITC and propidium iodide-[…] cells were assessed using Kaluza 1.3.

HUVEC cells = experiment: HUVEC cell death (Annexin/Propidium Iodide, flow cytometry); conditions: HUVEC (FIG. 8); 5 or 20 μM; treated for 48 hours
Protocol: FIG. 8. In vitro Effects of 6αa, GSK-7975-A and SKF-93365 on HUVEC Cell Death. […] Cell death was analyzed by flow cytometry following Annexin/Propidium Iodide labeling. Percentages of living cells, necrotic cells and apoptotic cells submitted to GSK-7975A (A), SKF-93365 (B), and 6αa (DAD 3-473) (C) treatment were normalized to the DMSO treatment conditions. Histograms present the amounts of apoptotic cells (annexin/PI positive cells) detected in each experimental condition after treatment with GSK-7975A (D), SKF-93365 (E), and 6αa (DAD 3-473) (F). Data are expressed as mean±SEM of n observations (n=2). Data are analyzed with non parametric Mann Withney analysis, *P<0.05, **P<0.01 and ***P<0.001.

JOK cells [5] = experiment: Migration of JOK cells through HUVEC in transwells; conditions: 5 or 20 μM
Protocol: Migration Protocol. Migration chambers (transwells) (Transwell 5.0 m polycarbonate membrane Costar) were coated overnight (37° C., 5% CO2) with 100 μL of fibronectine solution containing BSA (1 mg/ml) and LHC Basal Medium. Primary HUmbilical Vein Endothelial Cells (HUVEC) were seeded in each transwell (100 000/well) and cultured for 24 hours (37° C., 5% CO2). To evaluate B cell migration, JOK cells were added (300 000/well) to each transwell upper chamber containing RPMI 1640 medium (BioWest) containing 0.5% BSA and SDF1 (200 ng/ml) was added in the bottom chamber. Cells were cultures in the presence or absence of a test compound (GSK-7975-A, SKF-93365 and 6αa) or solvent. After 24 hours (37° C., 5% CO2), migrated cells were collected in the bottom chambers and counted by flow cytometry. The percentages of migration were calculated for each experimental collection.

PANC-1 cells = experiment: PANC-1 cytotoxicity (Cell Tox green assay); conditions: 5 and 20 μM, 24 hours
Protocol: Analysis of Cell Proliferation. For PANC-1 cell proliferation and cell cytotoxicity measurements, […] were seeded in 96 well-plates in 100 μL of DMEM medium. Cells were incubated for 24 hours at 37° C. with 3 different SOCE inhibitors (GSK-7975-A, SKF-93365 and 6αa) at 2 different concentrations (5 and 20 μM) compared to DMSO and untreated cells. Cell proliferation was evaluated using the Cell Titer kit proliferation assay (Promega). Cytotoxicity was evaluated using the Cell Tox green cytotoxicity assay (Promega). All the kits were used following manufacturer recommendations and using a plate reader.

[6] = Lymphocyte, 10 μM, thapsigargin (Tg) peak, read-out: Effect on amplitude of Tg Peak
[7] = Lymphocyte, 50 μM, thapsigargin (Tg) peak, read-out: Effect on amplitude of Tg Peak
[8] = Lymphocyte, 1 μM, DMSO control 100%, read-out: Effect on amplitude of SOCE Peak
[9] = Lymphocyte, 10 μM, DMSO control 100%, read-out: Effect on amplitude of SOCE Peak
[10] = Lymphocyte, 50 μM, DMSO control 100%, read-out: Effect on amplitude of SOCE Peak
[11] = Lymphocyte, 100 μM, DMSO control 100%, read-out: Effect on amplitude of SOCE Peak
[12] = Lymphocyte, 100 μM, thapsigargin (Tg) peak, read-out: Effect on amplitude of Tg Peak

SMILES	Effect on amplitude of SOCE peak ([1]; 100 μM, DMSO control 100%) [%]	inhibition at 10 µM [1, 6] [%]	inhibition at 50 µM [1, 7] [%]	inhibition at 1 µM [1, 8] [%]	pIC50 ([1]; Lymphocyte)	inhibition at 10 µM [1, 9] [%]	inhibition at 50 µM [1, 10] [%]	inhibition at 100 µM [1, 11] [%]	inhibition at 100 µM [1, 12] [%]	Effect on amplitude of SOCE peak ([1]; 1 μM, DMSO control 100%)	Effect on amplitude of SOCE peak ([1]; 10 μM, DMSO control 100%) [%]	Effect on amplitude of SOCE peak ([1]; 50 μM, DMSO control 100%) [%]	pIC50 [1]	Effect on amplitude of SOCE peak ([2]; 0.1 μM) [%]	Effect on amplitude of SOCE peak ([2]; 1 μM) [%]	Effect on amplitude of SOCE peak ([2]; 5 μM) [%]	Effect on amplitude of SOCE peak ([2]; 10 μM) [%]	Effect on amplitude of SOCE peak ([2]; 50 μM) [%]	Effect on amplitude of SOCE peak ([3]; 0.1 μM) [%]	Effect on amplitude of SOCE peak ([3]; 1 μM) [%]	further results
COc1ccc(CCCOc2ccc(CCn3cncn3)cc2)cc1 [Compound 6βf]	−10.0	13	18																		
COc1ccc(CCCOc2ccc(CCn3cccn3)cc2)cc1 [Compound 6βp]				-16	4.60																
COc1ccc(CCOc2ccc(CCn3ccc(C(F)(F)F)n3)cc2)cc1 [Compound 6βs]			6			13	34	64	10												
O=C(Nc1ccn(Cc2ccc(O)cc2C(F)(F)F)n1)c1c(F)cccc1F [GSK-7975A]	−94.0									19.0% and 9.0%	−9.0	−88.0	5.64	−7	−31	−66	−75	−87	0	−2	pIC50 ([2]; average of three assays, ±0.5 μM): 5.70; Effect on amplitude of SOCE peak ([3]; 5 μM): −19%; Effect on amplitude of SOCE peak ([3]; 10 μM): −22%; Effect on amplitude of SOCE peak ([3]; 50 μM): −72%; pIC50 [3]: 4.36; amplitude of Ca2+ release from the endoplasmic stores (SOCE in JOK B cells): not found to be significantly affected; amplitude of SOCE (SOCE in JOK B cells): significantly reduces; apoptosis or necrosis of cells (JOK cells [4]): do not induce apoptosis or necrosis; apoptosis or necrosis of cells (HUVEC cells): do not induce apoptosis or necrosis; transendothelial migration through HUVEC of JOK cells (JOK cells [5]): does not; cytotoxicity in cancer PANC-1 cells (PANC-1 cells): no cytotoxic effects
COc1ccc(CCCOC(Cn2ccnc2)c2ccc(OC)cc2)cc1 (centres unmarked) [SKF-96365]		6.6	11.1	26.4	4.22	15.4	44.3	58.7	8					−25	−21	−23	−4	−33	−8	−6	inhibition at 0.1 µM ([1]; Lymphocyte, DMSO control 100%, read-out: Effect on amplitude of SOCE Peak): 3.4%; inhibition at 0.1 µM ([1]; Lymphocyte, thapsigargin (Tg) peak, read-out: Effect on amplitude of Tg Peak): -2.4%; inhibition at 1 µM ([1]; Lymphocyte, 1 μM, thapsigargin (Tg) peak, read-out: Effect on amplitude of Tg Peak): -6.5%; Effect on amplitude of SOCE peak ([3]; 5 μM): −9%; Effect on amplitude of SOCE peak ([3]; 10 μM): −17%; Effect on amplitude of SOCE peak ([3]; 50 μM): −63%; pIC50 [3]: 4.40; amplitude of Ca2+ release from the endoplasmic stores (SOCE in JOK B cells): not found to be significantly affected; amplitude of SOCE (SOCE in JOK B cells): significantly reduces; apoptosis or necrosis of cells (JOK cells [4]): do not induce apoptosis or necrosis; apoptosis or necrosis of cells (HUVEC cells): do not induce apoptosis or necrosis; cytotoxicity in cancer PANC-1 cells (PANC-1 cells): no cytotoxic effects
COc1ccc(OC)c(-c2ccc(NC(=O)c3ccncc3F)cc2)c1 [Synta 66, reference compound]	−89.0									9.0%	6.0	−74.0	5.06								
